This is an account of results in patent US20040236084A1, “2-Aminopyridine substituted heterocycles” (Pfizer Inc, priority 2003, published 2004).

In one data set the target is Cdk2/cyclin A (Homo sapiens, UniProt P24941). The data set can be described thus: Assay for inhibition of Cdk2/Cyclin A (32P incorporation into retinoblastoma protein, filter plate). It counts as biochemical. Here is the method: (§1) To determine the inhibitory potency and selectivity of compounds of the present invention against Cdk4 and related kinases, compounds were evaluated in standard assays routinely used to measure inhibition of cyclin-dependent kinase enzymes and other protein kinases (see for example D. W. Fry et al., J. Biol. Chem. 2001, 276, 16617-16623). The assays were carried out as described below.
Assay for Inhibition of Cdk2/Cyclin A
Cdk2 enzyme assays for IC50 determinations and kinetic evaluation are performed as follows. 96-well filter plates (Millipore MADVN6550) are used. The final assay volume is 0.1 mL containing buffer A (20 mM TRIS (tris[hydroxymethyl]aminomethane) (pH 7.4), 50 mM NaCl, 1 mM dithiothreitol, 10 mM MgCl2), […] containing 0.25 μCi [^32P]ATP, 20 ng Cdk2/cyclin A, 1 μg retinoblastoma protein, and the test compound at appropriate dilutions in buffer A (Buffer A alone without added test compound was employed as a control for no inhibition. Buffer A containing excess EDTA was used to determine the level of background ^32P in the absence of enzyme activity). All components except the ATP are added to the wells, and the plate is placed on a plate mixer for 2 minutes. The reaction is initiated by addition of [^32P]ATP, and the plate is incubated at 25° C. for 15 minutes. The reaction is terminated by addition of 0.1 mL 20% TCA. The plate is kept at 4° C. for at least 1 hour to allow the substrate to precipitate. The wells are then washed five times with 0.2 mL 10% TCA, and ^32P incorporation is determined with a beta plate counter (Wallac Inc., Gaithersburg, Md.). The IC50 of the test compound was determined using the median effect method (Chou, T-C and Talalay, P. Applications of the median effect principle for the assessment of low-dose risk of carcinogens and for the quantitation of synergism and antagonism of chemotherapeutic agents. In: New Avenues in Developmental Cancer Chemotherapy (Eds. Harrap, K. T. and Connors, T. A.), pp. 37-64. Academic Press, New York, 1987).

In another data set the target is Cdk4/Cyclin D (Homo sapiens, UniProt P11802). Nature of the data set: Assay for inhibition of Cdk4/Cyclin D (32P incorporation into retinoblastoma protein, filter plate). The data set is classed as biochemical. Here is the method: as §1
Chain of Cdk4/Cyclin D (P11802 whole entry, species assumed): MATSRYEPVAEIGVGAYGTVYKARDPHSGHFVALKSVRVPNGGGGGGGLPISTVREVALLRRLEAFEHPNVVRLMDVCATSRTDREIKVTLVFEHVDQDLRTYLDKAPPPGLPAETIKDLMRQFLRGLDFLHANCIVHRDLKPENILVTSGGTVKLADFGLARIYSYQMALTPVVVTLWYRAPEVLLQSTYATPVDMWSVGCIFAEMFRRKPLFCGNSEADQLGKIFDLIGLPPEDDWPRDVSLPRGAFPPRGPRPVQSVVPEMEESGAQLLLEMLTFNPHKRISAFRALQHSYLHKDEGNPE
Chain of Cdk4/Cyclin D (P24385 whole entry partner, species assumed): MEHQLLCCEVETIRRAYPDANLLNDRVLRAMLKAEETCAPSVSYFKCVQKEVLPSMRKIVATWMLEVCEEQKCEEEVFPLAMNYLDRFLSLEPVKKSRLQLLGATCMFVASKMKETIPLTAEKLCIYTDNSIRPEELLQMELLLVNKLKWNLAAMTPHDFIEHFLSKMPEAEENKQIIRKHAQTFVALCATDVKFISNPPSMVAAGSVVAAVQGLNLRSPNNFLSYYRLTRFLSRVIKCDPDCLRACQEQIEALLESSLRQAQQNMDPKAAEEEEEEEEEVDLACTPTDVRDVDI
Assay for Inhibition of Cdk4/Cyclin D
The Cdk4 enzyme assay for IC50 determination and kinetic evaluation is performed as follows. 96-well filter plates (Millipore MADVN6550) are used. The total volume is 0.1 mL containing buffer A (20 mM TRIS (tris[hydroxymethyl]aminomethane) (pH 7.4), 50 mM NaCl, 1 mM dithiothreitol, 10 mM MgCl2), 25 [[…] ATP containing 0.25 μCi [^32P]ATP, 20 ng Cdk4, 1 μg retinoblastoma protein and the test compound at appropriate dilutions in buffer A. Buffer A alone without added test compound was employed as a control for no inhibition. Buffer A containing excess EDTA was used to determine the level of background ^32P in the absence of enzyme activity. All components except the ATP are added to the wells, and the plate is placed on a plate mixer for 2 minutes. The reaction is started by adding [^32P]ATP, and the plate is incubated at 25° C. for 15 minutes. The reaction is terminated by addition of 0.1 mL 20% trichloroacetic acid (TCA). The plate is kept at 4° C. for at least 1 hour to allow the substrate to precipitate. The wells are then washed five times with 0.2 mL 10% TCA, and ^32P incorporation is determined with a beta plate counter (Wallac Inc., Gaithersburg, Md.). The IC50 of the test compound was determined using the median effect method (Chou, T-C and Talalay, P. Applications of the median effect principle for the assessment of low-dose risk of carcinogens and for the quantitation of synergism and antagonism of chemotherapeutic agents. In: New Avenues in Developmental Cancer Chemotherapy (Eds. Harrap, K. T. and Connors, T. A.), pp. 37-64. Academic Press, New York, 1987).

The next data set relates to neointima formation. The conditions noted are these: in rats; cited from earlier work.

Where a name gives a salt, the structure may show the parent alone.

Take `CCOC(=O)c1cnc(Nc2ccc(N3CCNCC3)cn2)nc1NC1CCCC1` (as salt: hydrochloride): the melting point (usually the temperature of the solid-liquid transition) amounted to 180 °C.
For `Cc1nc2cnc(Nc3ccc(N4CCNCC4)cc3)nc2n(C2CCCC2)c1=O` [8′, reference compound], the results for the IC50 at Cdk2/cyclin A and on Cdk4/Cyclin D were 913 nM and 14 nM, respectively.
The matching figures for `CCc1nc2cnc(Nc3ccc(N4CCNCC4)cc3)nc2n(C2CCCC2)c1=O` [10′, reference compound]: 4120 nM and 28 nM.
`COc1ccc(CNc2nc(N(CCO)CCO)nc3c2ncn3C(C)C)cc1` [CVT-313]: in the data set with neointima formation, the “inhibition of neointima formation” value is on record as “greater than 80%”.
`Cc1nc2cnc(Nc3ccc(N4CCNCC4)cn3)nc2n(C2CCCC2)c1=O` [Example 8, 8-Cyclopentyl-6-methyl-2-(5-piperazin-1-yl-pyridin-2-ylamino)-8H-pteridin-7-one] yielded a melting point of 221 to 223 °C. Moreover, at Cdk2/cyclin A, the IC50 (commonly the concentration that gives 50% inhibition) is greater than 5000 nM. Besides, the IC50 on Cdk4/Cyclin D amounted to 510 nM.
As to `CCc1nc2cnc(Nc3ccc(N4CCNCC4)cn3)nc2n(C2CCCC2)c1=O` [Example 10, 8-Cyclopentyl-6-ethyl-2-(5-piperazin-1-yl-pyridin-2-ylamino)8H-pteridin-7-one], the melting point is 203 to 208 °C (dec.). Further, at Cdk2/cyclin A, the IC50 is greater than 5000 nM. In addition, at Cdk4/Cyclin D, the IC50 turned out to be 335 nM.
`COc1ccc2cnc(Nc3ccc(N4CCNCC4)cn3)nc2c1C1CCCC1` [Example 13, (8-Cyclopentyl-7-methoxy-quinazolin-2-yl)-(5-piperazin-1-yl-pyridin-2-yl)-amine] registered a melting point greater than 200 °C. The IC50 on Cdk2/cyclin A amounted to 1700 nM. In addition, on Cdk4/Cyclin D, the IC50 turned out to be 4 nM.
`CNc1nc(Nc2ccc(N3CCOCC3)cc2)nc(NC2CCCC2)n1` [Example 14D, N-Cyclopentyl-N′-methyl-N″-(4-morpholin-4-yl-phenyl)-[1,3,5]triazine-2,4,6-triamine] had a melting point of 218 to 219 °C.
Still for that read-out and setting: for `Clc1nc(Nc2ccc(N3CCOCC3)nc2)nc(NC2CCCC2)n1` [Example 14E, 6-Chloro-N-cyclopentyl-N′-(6-morpholin-4-yl-pyridin-3-yl)-[1,3,5]triazine-2,4-diamine] the value was 218 to 219 °C; for `O=C1N(Cc2ccccc2)Cc2cnc(Nc3ccc(N4CCCCC4)cn3)nc2N1C1CCCC1` [Example 15, 3-Benzyl-1-cyclopentyl-7-(3,4,5,6-tetrahydro-2H-[1,3′]bipyridinyl-6′-ylamino)-3,4-dihydro-1H-pyrimido[4,5-d]pyrimidin-2-one], 194 to 196 °C.
